In PMC3653620 (Investigative radiology, 2012):
Entries after “also recorded” stand apart in the source; their conditions may differ. Where two headings read alike, the source gives them in different places. Where a SMILES comes first, the peptide text is derived from it. Bridges are numbered along the chain shown (N, C = ends). [ ]: non-standard residue; d: D form. The star is where a group is joined. X1 = O=C(O)CN1CCN(CC(=O)O)CCN(C(CCC(=O)NCC[C@H](NC(=O)CCC(C(=O)O)N2CCN(CC(=O)O)CCN(CC(=O)O)CCN(CC(=O)O)CC2)C(=O)NCc2ccc(CN*)cc2)C(=O)O)CCN(CC(=O)O)CC1; DOTAGA = O=C(O)CN1CCN(CC(=O)O)CCN(C(CCC(=O)*)C(=O)O)CCN(CC(=O)O)CC1; Tyr(3-Cl) = N[C@@H](Cc1ccc(O)c(Cl)c1)C(=O)O; Hyp = O=C(O)[C@@H]1C[C@@H](O)CN1; Dab = NCC[C@H](N)C(=O)O

What was measured:
[1] = tested on: tumor periphery (breast cancer xenograft, BT-20); experiment: Contrast agent washout from tumor periphery, T1-weighted MRI at 9.4T; type: in vivo, nude mice; human adenocarcinoma BT-20 cell line; details: for retention in the tumor periphery / washout, in words: Gd-DTPA 200, EP-2104R or CLP 20 μmol/kg i.v.; for t1/2 in the tumor periphery: CNR vs time
[2] = tested on: tumor core (breast cancer xenograft, BT-20); experiment: Contrast agent washout from tumor core, T1-weighted MRI at 9.4T; type: in vivo, nude mice; human adenocarcinoma BT-20 cell line
[3] = cited from earlier work; for relaxivity at 9.4T: per molecule
[4] = tested on: blood plasma proteins; details: cited from earlier work
[5] = cited from earlier work
[6] = tested on: thrombi in the heart chambers, arteries or veins; details: animal models and clinical trials; ref [32]-[43]; cited from earlier work

In the case of `CC[C@H](C)[C@H](NC(=O)[C@H](Cc1ccc(O)cc1)NC(=O)[C@@H]1CSSC[C@H](NC(=O)[C@@H](CCC(=O)O)NC(=O)[C@H](Cc2ccc(O)cc2)NC(=O)[C@H](CCNC(=O)CCC(C(=O)O)N2CCN(CC(=O)O)CCN(CC(=O)O)CCN(CC(=O)O)CC2)NC(=O)CCC(C(=O)O)N2CCN(CC(=O)O)CCN(CC(=O)O)CCN(CC(=O)O)CC2)C(=O)N2C[C@H](O)C[C@H]2C(=O)N[C@@H](Cc2ccc(O)c(Cl)c2)C(=O)NCC(=O)N[C@@H](CC(C)C)C(=O)N1)C(=O)N[C@@H](CCC(N)=O)C(=O)NCc1ccc(CNC(=O)[C@H](CCNC(=O)CCC(C(=O)O)N2CCN(CC(=O)O)CCN(CC(=O)O)CCN(CC(=O)O)CC2)NC(=O)CCC(C(=O)O)N2CCN(CC(=O)O)CCN(CC(=O)O)CCN(CC(=O)O)CC2)cc1` (stereo partly drawn) [EP-2104R] ({DOTAGA}-[Dab](DOTAGA)Y[dE]C[Hyp][Tyr(3-Cl)]GLCYIQ-X1; disulfide 4-9; N-terminus and C-terminus assumed), the “retention in the tumor periphery / washout, in words” value ([1]; 9.4T) is reported as “stays in the tumor periphery much longer than Gd-DTPA or CLP; also recorded: significantly longer retained in the tumor periphery; also recorded: retained significantly longer in the tumor periphery than either Gd-DTPA or CLP”, the “duration of persistent enhancement of the tumor periphery” value ([1]; after EP-2104R injection, 20 μmol/kg i.v., FLASH images, 9.4T) is reported as no less than 90 min and the “variability of washout from the tumor periphery” value ([1]; in vivo) is reported as “varied several fold across this ROI”. The “washout from the tumor periphery, % slower than Gd-DTPA” value ([1]; in vivo) was 190±75%, the “washout from the tumor periphery, fold slower than CLP” value ([1]; in vivo) was 5 fold and the “Half-life in the tumor periphery (mean ± SEM)” value ([1]; in vivo, iv) was 103 ± 18 min. The “t1/2 in the tumor periphery, Mean (St Dev)” value ([1]; in vivo, iv) was 103 (53) min, the enhancement of tumor ([2]; EP-2104R 20 μmol/kg i.v., transient, tumor core and periphery, 9.4T) was “transiently enhanced both the tumor core and periphery” and the “washout from the tumor core, % slower than Gd-DTPA” value ([2]; in vivo) was 20%. For the same compound, the “t1/2, washout from the tumor core” value ([2]; mouse, in vivo, iv) was 45 ± 9 min, the “relaxivity at 9.4T, per Gd” value ([3]; 9.4T, per Gd, ref [48],[49]) was 6.4 mM⁻¹ s⁻¹ and the “relaxivity at 9.4T” value ([3]; 9.4T, ref [48],[49]) was 25.6 mM⁻¹ s⁻¹. For the same compound, the “relaxivity of fibrin-bound probe at 9.4T vs clinical field strengths” value ([3]; fibrin-bound, 9.4T vs clinical field strengths, ref [22],[48]) was “much lower at this field compared to clinical field strengths”, the “affinity for blood plasma proteins” value [4] was “only very low affinity for blood plasma proteins” and the excretion ([5]; in vivo) was “exclusive renal excretion”. The identification of thrombi [6] was “efficacious in identifying thrombi in the heart chambers, arteries or veins”.

With `CNC[C@H](O)[C@@H](O)[C@H](O)[C@H](O)CO.CNC[C@H](O)[C@@H](O)[C@H](O)[C@H](O)CO.O=C([O-])CN(CCN(CC(=O)[O-])CC(=O)O)CCN(CC(=O)[O-])CC(=O)O.[Gd+3]` [Gd-DTPA, Gadopentetate dimeglumine] the “retention in the tumor periphery / washout, in words” value ([1]; 9.4T) was “not retained in the tumor periphery; also recorded: significantly faster washout than EP-2104R”, the “half-life in tumor periphery compared with EP-2104R” value ([1]; all animals, p<0.05 for both) was “significantly shorter” and the “variability of washout from the tumor periphery” value ([1]; among all the mice, or across the tumor periphery ROI in some mice) was “very similar among all the mice”. The “t1/2 in the tumor periphery” value ([1]; animal 3, Gd-DTPA 200 μmol/kg then EP-2104R 20 μmol/kg i.v., 9.4T) was 27 min, the “t1/2 in the tumor periphery” value ([1]; animal 4, Gd-DTPA 200 μmol/kg then EP-2104R 20 μmol/kg i.v., 9.4T) was 38 min and the “t1/2 in the tumor periphery” value ([1]; animal 5, Gd-DTPA 200 μmol/kg then EP-2104R 20 μmol/kg i.v., 9.4T) was 26 min. The “t1/2 in the tumor periphery” value ([1]; animal 6, Gd-DTPA 200 μmol/kg then EP-2104R 20 μmol/kg i.v., 9.4T) was 23 min, the “t1/2 in the tumor periphery” value ([1]; animal 7, Gd-DTPA 200 μmol/kg then EP-2104R 20 μmol/kg i.v., 9.4T) was 38 min and the “t1/2 in the tumor periphery” value ([1]; animal 8, Gd-DTPA 200 μmol/kg then EP-2104R 20 μmol/kg i.v., 9.4T) was 41 min. The “t1/2 in the tumor periphery” value ([1]; animal 9, Gd-DTPA 200 μmol/kg then CLP 20 μmol/kg i.v., 9.4T) was 29 min, the “t1/2 in the tumor periphery” value ([1]; animal 10, Gd-DTPA 200 μmol/kg then CLP 20 μmol/kg i.v., 9.4T) was 20 min and the “t1/2 in the tumor periphery” value ([1]; animal 11, Gd-DTPA 200 μmol/kg then CLP 20 μmol/kg i.v., 9.4T) was 27 min. The “t1/2, washout from the tumor core” value ([2]; 3 mice, Gd-DTPA 200 μmol/kg followed by CLP 20 μmol/kg i.v., ±SEM, p=0.35) was 28 ± 5 min, the “t1/2, washout from the tumor core” value ([2]; 6 mice, Gd-DTPA 200 μmol/kg followed by EP-2104R 20 μmol/kg i.v., ±SEM, p=0.17) was 38 ± 9 min and the “relaxivity at 9.4T” value ([3]; 9.4T, ref [48],[49]) was 3.7 mM⁻¹ s⁻¹. The “affinity for blood plasma proteins” value ([4]; ref [22],[33]) was “only very low affinity for blood plasma proteins” and the excretion ([5]; ref [22],[33]) was “exclusive renal excretion”.
